Experimental data published in patent publication US11459547B2, “Method for producing osteoblast cluster using human iPS cells” (priority 2017, dated 2022).
“Also recorded” adds a separate entry of the source.

Tests used:
Format in all cases: cell-based
[1] = system: human iPS cell embryoid bodies (409B2); assay: Mesoderm differentiation induction of iPS cell embryoid bodies, immunofluorescent staining of mesodermal marker Brachyury; settings: embryoid body formation 1 day, then static culture 5 days in mesoderm differentiation induction medium with 30 CHIR99021 and/or 5 cyclopamine; the label names the compound(s) present
Description: The iPS cells were washed with phosphate buffered saline (PBS), and treated with 1 ml of a CTK solution (0.25% trypsin, 0.1 mg/ml collagenase IV, 10 mM CaCl2), 20% KSR) at 37° C. for 1 minute. After that, the CTK solution was removed by aspiration, and 1 ml of PBS was added. PBS was removed, and only the feeder cells exfoliated from the culture plate were removed by aspiration as much as possible. After that, adherent iPS cells remaining in the culture plate were collected using 5 ml of ES medium (RCHEMD001) supplemented with 4 ng/ml FGF. The resultant cell suspension was transferred to a low-attachment culture dish (Thermo Fisher Scientific, Cat. #150239), and subjected to static culture for 1 day to induce the formation of embryoid bodies. As a control, the formation of embryoid bodies was performed for 0 days or 4 days.
After static culture had been performed for 1 day, iPS cell embryoid bodies were collected. […] As a control, osteoblastic differentiation induction described in (1-4) was performed after the embryoid body formation described in (1-2) without mesoderm differentiation induction. For the evaluation of mesoderm differentiation induction, immunofluorescent staining using a mesodermal marker Brachyury was performed.

[2] = system: human iPS cell embryoid bodies (409B2); assay: Mesoderm induction ratio by immunofluorescent staining of Brachyury; settings: embryoid body formation 1 day; mesoderm differentiation induction medium with or free of CHIR99021 or cyclopamine; the label names the compound(s) present; 17% in the absence of both
Description: The immunostaining was pertained using: anti-Brachyury polyclonal antibody (AF2085, R&D SYSTEMS) as a primary antibody; Alexa Fluor594-labeled anti-goat IgG antibody (Thermo Fisher Scientific) as a secondary antibody; and Hoechst 33258 (Thermo Fisher Scientific) for nuclear staining.
The mesoderm induction ratio was determined from the ratio of Brachyury-positive embryoid bodies in all embryoid bodies present in an immunostaining photographic image.

[3] = system: human iPS cell embryoid bodies; assay: Comparative Example: retinoic acid culture instead of mesoderm induction, then osteoblastic differentiation induction; shape of cell construct; settings: ES medium 2 days, then 2 days with 1 µM retinoic acid, then osteoblastic differentiation induction without mesoderm induction step
Description: iPS cells were obtained in accordance with the method described in (1-1) above, and subjected to culture in an ES medium corresponding to (1-2) above for 2 days. The resultant embryoid bodies of the iPS cells were collected, and further cultured for 2 days using the above-mentioned ES medium having blended therein 1 µM retinoic acid (all-trans retinoic acid: Sigma). After that, the step of inducing differentiation into osteoblasts described in (1-4) above was performed without the step of inducing differentiation into mesoderm cells described in (1-3) above.

[4] = system: human iPS cell-derived mesoderm cell constructs; assay: Osteoblastic differentiation induction with small-molecule compound, histochemical observation of mineralization (von Kossa)
Description: As a control, non-adherent culture was performed without shaking. The medium was changed every 7 days. The resultant sample was subjected to immunofluorescent staining, specifically hematoxylin and eosin (H&E) staining, von Kossa staining, or Osteocalcin, and subjected to histochemical observation.

For Cc1c[nH]c(-c2cnc(NCCNc3ccc(C#N)cn3)nc2-c2ccc(Cl)cc2Cl)n1 [CHIR99021], the “expression of the mesodermal marker (Brachyury), immunofluorescent staining” value [1] was “marked expression of Brachyury was similarly found” and the “mesoderm induction ratio (ratio of Brachyury-positive embryoid bodies in all embryoid bodies)” value [2] was 57%.
For CC1=C(/C=C/C(C)=C/C=C/C(C)=C/C(=O)O)C(C)(C)CCC1 [retinoic acid, all-trans retinoic acid], the “shape of resultant osteoblast-like cell construct” value [3] was “not solid cell constructs, but were bag-like; also recorded: hollow bag-like (sac-like) shape”.
CC(=O)N(O)CCCCCNC(=O)CCC(=O)N(O)CCCCCNC(=O)CCC(=O)N(O)CCCCCN [desferrioxamine] was tested, and the “mineralization of cell construct on day 30” value ([4]; day 30 of the osteoblastic differentiation induction, 10 μM desferrioxamine) was “markedly mineralized cell construct” and the “mineralization of osteoblast construct” value ([4]; osteoblastic differentiation induction medium supplemented with 10 μM desferrioxamine or 1 μM simvastatin, non-adherent shaking culture) was “markedly mineralized osteoblast construct”.
With CC1=C2C[C@H]3[C@@H](CC=C4C[C@@H](O)CC[C@@]43C)[C@@H]2CC[C@]12O[C@@H]1C[C@H](C)CN[C@H]1[C@H]2C [cyclopamine] the “expression of the mesodermal marker (Brachyury), immunofluorescent staining” value [1] was “the expression of Brachyury was found, though not as marked as in the presence of CHIR99021”.
